Reference: PubChem BioAssay AID328 (DTP/NCI, 2004)
Where “and” joins values, the source holds several entries; their conditions need not be identical. Identical values can stand only once. Inconclusive results and toxic doses are left out. How the source made its calls: active means survival T/C of 150% or more; inactive means T/C below 125% in these data.

Test system: BDF1 mice, P388 leukemia ip, median survival T/C
Assay: NCI In Vivo Anticancer Drug Screen. Data for tumor model P388 Leukemia (intraperitoneal) in B6D2F1 (BDF1) mice
Conditions: endpoint: median survival time, higher = longer survival
Summary of the method: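 Survival ratio, drug arm over vehicle arm, in mice with a transplanted tumour.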

[1] = dose: 25.0 mg/kg/injection, schedule: Q01DX009 (ip), vehicle: water
[2] = dose: 50.0 mg/kg/injection, schedule: Q01DX009 (ip), vehicle: water
[3] = dose: 100.0 mg/kg/injection, schedule: Q01DX009 (ip), vehicle: water
[4] = dose: 200.0 mg/kg/injection, schedule: Q01DX009 (ip), vehicle: water
[5] = dose: 1.56 mg/kg/injection, schedule: Q01DX009 (ip), vehicle: saline
[6] = dose: 100.0 mg/kg/injection, schedule: Q01DX009 (ip), vehicle: Klucel (hydroxypropylcellulose) (HPC)
[7] = dose: 200.0 mg/kg/injection, schedule: Q01DX009 (ip), vehicle: Klucel (hydroxypropylcellulose) (HPC)
[8] = dose: 200.0 mg/kg/injection, schedule: Q04DX003 (ip), vehicle: saline
[9] = dose: 400.0 mg/kg/injection, schedule: Q01DX009 (ip), vehicle: Klucel (hydroxypropylcellulose) (HPC)
[10] = dose: 100.0 mg/kg/injection, schedule: Q01DX009 (ip), vehicle: saline
[11] = dose: 100.0 mg/kg/injection, schedule: Q04DX003 (ip), vehicle: saline
[12] = dose: 200.0 mg/kg/injection, schedule: Q01DX009 (ip), vehicle: saline
[13] = dose: 400.0 mg/kg/injection, schedule: Q04DX003 (ip), vehicle: saline
[14] = dose: 50.0 mg/kg/injection, schedule: Q01DX009 (ip), vehicle: saline with Tween-80
[15] = dose: 100.0 mg/kg/injection, schedule: Q01DX009 (ip), vehicle: saline with Tween-80
[16] = dose: 100.0 mg/kg/injection, schedule: Q04DX003 (ip), vehicle: saline with Tween-80
[17] = dose: 200.0 mg/kg/injection, schedule: Q04DX003 (ip), vehicle: saline with Tween-80
[18] = dose: 400.0 mg/kg/injection, schedule: Q04DX003 (ip), vehicle: saline with Tween-80
[19] = dose: 50.0 mg/kg/injection, schedule: Q01DX009 (ip), vehicle: saline
[20] = dose: 200.0 mg/kg/injection, schedule: Q01DX009 (ip), vehicle: saline with Tween-80

Measured: T/C

CC(O)(c1ccc(Cl)cc1)C(c1ccccc1)c1ccccn1 (stereo not given)
inactive: [1] 101 % of control | [2] 109 % of control | [3] 86 % of control | [4] 109 % of control | dose: 400.0 mg/kg/injection, schedule: Q01DX009 (ip), vehicle: water 99 % of control

Nc1ccc(/C=C\c2nccc3ccccc23)cc1
inactive: dose: 0.39 mg/kg/injection, schedule: Q01DX009 (ip), vehicle: saline with Tween-80 114 % of control | dose: 0.78 mg/kg/injection, schedule: Q01DX009 (ip), vehicle: saline with Tween-80 107 % of control | dose: 0.78 mg/kg/injection, schedule: Q01DX009 (ip), vehicle: saline 123 % of control | [5] 123 % of control | dose: 3.13 mg/kg/injection, schedule: Q01DX009 (ip), vehicle: saline with Tween-80 89 % of control | dose: 3.13 mg/kg/injection, schedule: Q01DX009 (ip), vehicle: saline 113 % of control

O=C(NNc1ccccc1)C(F)(F)F
inactive: dose: 12.5 mg/kg/injection, schedule: Q01DX009 (ip), vehicle: Klucel (hydroxypropylcellulose) (HPC) 90 % of control | dose: 25.0 mg/kg/injection, schedule: Q01DX009 (ip), vehicle: Klucel (hydroxypropylcellulose) (HPC) 95 % of control | dose: 37.5 mg/kg/injection, schedule: Q04DX003 (ip), vehicle: saline with Tween-80 100 % of control | dose: 50.0 mg/kg/injection, schedule: Q01DX009 (ip), vehicle: Klucel (hydroxypropylcellulose) (HPC) 110 % of control | dose: 56.25 mg/kg/injection, schedule: Q01DX001 (ip), vehicle: saline with Tween-80 104 % of control | dose: 75.0 mg/kg/injection, schedule: Q04DX003 (ip), vehicle: saline with Tween-80 104 % of control | dose: 112.5 mg/kg/injection, schedule: Q01DX001 (ip), vehicle: saline with Tween-80 100 % of control

CC(=O)[C@H]1[C@H](C)C[C@H]2[C@@H]3CCC4=CC(=O)CC[C@]4(C)[C@@]3(F)[C@@H](O)C[C@@]21C
inactive: [6] 105 % of control | dose: 100.0 mg/kg/injection, schedule: Q04DX003 (ip), vehicle: alcohol 120 % of control | dose: 132.0 mg/kg/injection, schedule: Q04DX003 (ip), vehicle: saline 115 % of control | [7] 120 % of control | [8] 104 % of control and 120 % of control | dose: 300.0 mg/kg/injection, schedule: Q04DX003 (ip), vehicle: saline 110 % of control and 113 % of control | [9] 120 % of control | dose: 400.0 mg/kg/injection, schedule: Q04DX003 (ip), vehicle: alcohol 105 % of control

CCSc1ncnc2[nH]ncc12
inactive: dose: 6.25 mg/kg/injection, schedule: Q01DX009 (ip), vehicle: saline + alcohol 101 % of control | dose: 12.5 mg/kg/injection, schedule: Q01DX009 (ip), vehicle: saline + alcohol 100 % of control | dose: 25.0 mg/kg/injection, schedule: Q01DX009 (ip), vehicle: saline + alcohol 100 % of control | dose: 50.0 mg/kg/injection, schedule: Q01DX009 (ip), vehicle: saline + alcohol 98 % of control

CN(C)CCNC1=CC(=O)c2ccccc2C1=O
inactive: dose: 12.5 mg/kg/injection, schedule: Q01DX009 (ip), vehicle: water 91 % of control | dose: 12.5 mg/kg/injection, schedule: Q04DX003 (ip), vehicle: water 107 % of control | [1] 102 % of control | dose: 25.0 mg/kg/injection, schedule: Q04DX003 (ip), vehicle: water 100 % of control | [2] 100 % of control | dose: 50.0 mg/kg/injection, schedule: Q04DX003 (ip), vehicle: water 100 % of control | [3] 98 % of control | dose: 100.0 mg/kg/injection, schedule: Q04DX003 (ip), vehicle: water 98 % of control | [4] 96 % of control and 105 % of control

c1c[nH]cn1
inactive: [10] 90 % of control | [11] 95 % of control | [12] 100 % of control | [8] 104 % of control | dose: 400.0 mg/kg/injection, schedule: Q01DX009 (ip), vehicle: saline 118 % of control | [13] 95 % of control

CCNC(C)(C)C(O)c1ccc(Cl)s1 (stereo not given)
inactive: dose: 25.0 mg/kg/injection, schedule: Q01DX009 (ip), vehicle: saline with Tween-80 105 % of control | dose: 25.0 mg/kg/injection, schedule: Q04DX003 (ip), vehicle: saline with Tween-80 102 % of control | [14] 88 % of control | dose: 50.0 mg/kg/injection, schedule: Q04DX003 (ip), vehicle: saline with Tween-80 100 % of control | [15] 88 % of control | [16] 86 % of control and 101 % of control | [17] 88 % of control and 104 % of control | [18] 92 % of control

O=C(c1ccccc1)C(Cl)C(=O)c1ccccc1
inactive: dose: 50.0 mg/kg/injection, schedule: Q01DX001 (ip), vehicle: saline with Tween-80 108 % of control | dose: 65.0 mg/kg/injection, schedule: Q01DX001 (ip), vehicle: saline with Tween-80 120 % of control | dose: 150.0 mg/kg/injection, schedule: Q01DX001 (ip), vehicle: saline with Tween-80 101 % of control | dose: 200.0 mg/kg/injection, schedule: Q01DX001 (ip), vehicle: saline with Tween-80 105 % of control

CC1(C)C=CN2C(=O)C3=CCCN3C(=O)C2CC12Nc1ccccc1C2=O (stereo not given)
inactive: dose: 6.25 mg/kg/injection, schedule: Q01DX009 (ip), vehicle: saline 94 % of control | dose: 12.5 mg/kg/injection, schedule: Q01DX009 (ip), vehicle: saline 104 % of control | dose: 25.0 mg/kg/injection, schedule: Q01DX009 (ip), vehicle: saline 110 % of control | [19] 100 % of control

NCc1cn(C2OC(CO)C(O)C2O)c2ncnc(N)c12 (stereo not given)
inactive: [5] 91 % of control and 99 % of control | dose: 3.12 mg/kg/injection, schedule: Q01DX009 (ip), vehicle: saline 100 % of control and 123 % of control | dose: 3.12 mg/kg/injection, schedule: Q04DX003 (ip), vehicle: saline 95 % of control | dose: 6.25 mg/kg/injection, schedule: Q04DX003 (ip), vehicle: saline 91 % of control

COc1ccc(C(=O)CCCCl)cc1
inactive: [6] 100 % of control | [7] 110 % of control | [9] 95 % of control

COc1ccc(C2CCc3cc4c(cc3C2=O)OCO4)cc1OC (stereo not given)
inactive: [15] 100 % of control | [16] 90 % of control | [20] 95 % of control | [17] 100 % of control | dose: 400.0 mg/kg/injection, schedule: Q01DX009 (ip), vehicle: saline with Tween-80 100 % of control | [18] 100 % of control

CC#CCOCC(O)CCl (stereo not given)
inactive: dose: 50.0 mg/kg/injection, schedule: Q04DX003 (ip), vehicle: saline 115 % of control | [10] 108 % of control | [11] 95 % of control | [12] 116 % of control | [8] 90 % of control | [13] 112 % of control

CCOC(=O)Cn1c(C(F)(F)F)nc2nc(Cl)c(Cl)nc21
inactive: [16] 110 % of control | [17] 110 % of control | [18] 110 % of control

OCC(O)C(O)C(O)CO (stereo not given)
inactive: dose: 100.0 mg/kg/injection, schedule: Q01DX010 (ip), vehicle: saline 100 % of control | dose: 400.0 mg/kg/injection, schedule: Q01DX010 (ip), vehicle: saline 100 % of control

CC1COB(c2ccccc2)OCC(C)N1CNC(=O)C1=C(O)C2(O)C(O)=C3C(=O)C4C(O)=CC=CC4C(C)(O)C3CC2C(N(C)C)C1=O (stereo not given)
inactive: [19] 109 % of control | [10] 98 % of control | [12] 111 % of control

O=C(CNC(=O)Nc1n[nH]c(=S)s1)N/N=C/c1ccccc1O
inactive: [14] 100 % of control | [15] 91 % of control | [20] 98 % of control

NS(=O)(=O)c1ccc(NC(=S)NC(=O)/C=C/c2ccccc2)cc1
inactive: dose: 100.0 mg/kg/injection, schedule: Q04DX003 (sc), vehicle: olive oil, sesame oil, peanut oil 90 % of control | dose: 200.0 mg/kg/injection, schedule: Q04DX003 (sc), vehicle: olive oil, sesame oil, peanut oil 90 % of control | dose: 400.0 mg/kg/injection, schedule: Q04DX003 (sc), vehicle: olive oil, sesame oil, peanut oil 90 % of control

C=C(C)CP(=O)(c1ccccc1)c1ccccc1
inactive: [14] 96 % of control | [15] 100 % of control | [20] 91 % of control

CC(C)(C)OC(=O)NCC(=O)NNC(=O)OC(C)(C)C
inactive: [11] 104 % of control | [8] 113 % of control | [13] 104 % of control
